Measured values published in patent publication US8859562B2, “Use of RNAI inhibiting PARP activity for the manufacture of a medicament for the treatment of cancer” (The University of Sheffield, priority 2003, dated 2014).

Assays:
[1] = tested on: irs1 cells (XRCC2 deficient, deficient in HR); assay: Colony outgrowth assay, irs1 cells; assay type: cell-based, Chinese hamster; settings: irs1, defective in XRCC2; FIG. 1
Method: (§1) 500 cells suspended in medium were plated onto a Petri dish 4 hours prior to the addition of 3-AB, ISQ or NU1025. ISQ and NU1025 were dissolved in DMSO to a final concentration of 0.2% in treatment medium. 7-12 days later, when colonies could be observed, these colonies were fixed and stained with methylene blue in methanol (4 g/l). Colonies consisting of more than 50 cells were subsequently counted.

[2] = tested on: irs1SF cells (XRCC3 deficient, deficient in HR); assay: Colony outgrowth assay, irs1SF cells; assay type: cell-based, Chinese hamster; settings: defective in XRCC3, FIG. 1
Method: as §1

[3] = tested on: CXR3 cells (irs1SF complemented with XRCC3); assay: Colony outgrowth assay, CXR3 cells; assay type: cell-based, Chinese hamster; settings: CXR3 versus irs1SF; FIG. 1
Method: as §1

[4] = tested on: irs1X2.2 cells (irs1 complemented with XRCC2); assay: Colony outgrowth assay, irs1X2.2 cells; assay type: cell-based, Chinese hamster; settings: irs1X2.2 versus irs1; FIG. 1
Method: as §1

[5] = tested on: VC8+B2 cells (functional BRCA2 gene on overexpression vector); assay: Colony outgrowth assay, VC8+B2 cells; assay type: cell-based, Chinese hamster; settings: FIG. 2
Method: as §1

V-C8+B2 cells [6] = assay: RAD51 foci immunofluorescence, V-C8+B2 cells; assay type: cell-based, Chinese hamster; settings: 24-hour treatment, 10 μM, t-test p<0.05, FIG. 5D
Method: (§2) Cells were plated onto coverslips 4 h prior to 24-h treatments as indicated. Following treatments the medium was removed and coverslips rinsed once in PBS at 37° C. and fixed as described elsewhere. The primary antibodies and dilutions used in this study were; rabbit polyclonal anti PAR (Trevigen; 1:500), goat polyclonal anti Rad51 (C-20, Santa Cruz; 1:200) and rabbit polyclonal anti Rad51 (H-92, Santa Cruz; 1:1000). The secondary antibodies were Cy-3-conjugated goat anti-rabbit IgG antibody (Zymed; 1:500), Alexa 555 goat anti-rabbit F(ab′)2IgG antibody (Molecular Probes; 1:500), Alexa 546 donkey anti-goat IgG antibody (Molecular Probes; 1:500) and Alexa 488 donkey anti-rabbit IgG antibody (Molecular Probes; 1:500). Antibodies were diluted in PBS containing 3% bovine serum albumin. DNA was stained with 1 μg/ml To Pro (Molecular Probes). Images were obtained with a Zeiss LSM 510 inverted confocal microscope using planapochromat 63X/NA 1.4 oil immersion objective and excitation wavelengths 488, 546 and 630 nm. Through focus maximum projection images were acquired from optical sections 0.50 μm apart and with a section thickness of 1.0 μm. Images were processed using Adobe PhotoShop (Abacus Inc). At least 300 nuclei were counted on each slide and those containing more than 10 RAD51 foci or sites of PARP activity were classified as positive.

[7] = tested on: VC8#13 cells (functional BRCA2 gene on chromosome 13); assay: Colony outgrowth assay, VC8#13 cells; assay type: cell-based, Chinese hamster; settings: BRCA2 on chromosome 13 (VC8#13); FIG. 2
Method: as §1

[8] = tested on: BRCA2 deficient V-C8 cells; assay: RAD51 foci immunofluorescence, V-C8 cells; assay type: cell-based, Chinese hamster; settings: 24-hour treatment, 10 μM, FIG. 5D
Method: as §2

V-C8 cells = assay: Pulse-field gel electrophoresis for DSBs, V-C8 cells; assay type: cell-based, Chinese hamster; settings: highly toxic levels of NU1025 (0.1 mM, 24-hour), FIG. 5A
Method: (§3) 1.5×10^6 cells were plated onto 100 mm dishes and allowed 4 h for attachment. […] These inserts were incubated as described elsewhere (8) and separated by pulse-field gel electrophoresis for 24 h (BioRad; 120° angle, 60 to 240 s switch time, 4 V/cm). The gel was subsequently stained with ethidium bromide for analysis.

[9] = tested on: MCF7 (wild-type p53) breast cancer cells depleted of BRCA2; assay: Colony outgrowth of siRNA-treated MCF-7 cells; assay type: cell-based; settings: MCF7, BRCA2 depleted with a mixture of BRCA2 siRNA; FIG. 4
Method: as §1
Predesigned BRCA2 SMARTpool and scrambled siRNAs were purchased (Dharmacon, Lafayette, Colo.). 10000 cells seeded onto 6 well plates and left over night before transfected with 100 nM siRNA using Oligofectamine Reagent (Invitrogen) according to manufacturers instructions. Cells were then cultured in normal growth media for 48 h prior to trypsinisation and replating for toxicity assays. Suppression of BRCA2 was confirmed by Western blotting (as described previously) of protein extracts treated with siRNA with an antibody against BRCA2 (Oncogene, Nottingham, UK).

V-C8+B2 cells [10] = assay: Survival on co-treatment with replication inhibitors and NU1025; assay type: cell-based, Chinese hamster; settings: co-treatment with NU1025 (10 μM)
Method: as §1

VC8 cells = assay: Apoptosis experiments (annexin-V/PI flow cytometry); assay type: cell-based, Chinese hamster; settings: 72 hours following exposure; FIG. 3
Method: 0.25×10^6 cells were plated onto Petri dishes and grown for 4 hours before treatment with NU1025. After 72 hours, cells were trypsinized and resuspended with medium containing any floating cells from that sample. The cells were pelleted by centrifugation and resuspended for apoptosis analysis with FITC-conjugated annexin-V and propidium iodine (PI) (ApoTarget, Biosource International) according to manufacturer's protocol. Samples were analysed by flow cytometry (Becton-Dickenson FACSort, 488 nm laser), and percentage of apoptotic cells was determined by the fraction of live cells (PI-negative) bound with FITC-conjugated annexin-V.

V79 cells = assay: Pulse-field gel electrophoresis for DSBs, V79 cells; assay type: cell-based, Chinese hamster; settings: highly toxic levels of NU1025 (0.1 mM, 24-hour), FIG. 5A
Method: as §3

[11] = tested on: BRCA2 deficient cells (VC8); assay: Colony outgrowth assay, VC8 cells; assay type: cell-based, Chinese hamster
Method: as §1

[12] = tested on: MDA-MB-231 (mutated p53) breast cancer cells depleted of BRCA2; assay: Colony outgrowth of siRNA-treated MDA-MB-231 cells; assay type: cell-based; settings: MDA-MB-231, BRCA2 depleted with a mixture of BRCA2 siRNA; FIG. 4
Method: 500 cells suspended in medium were plated onto a Petri dish 4 hours prior to the addition of 3-AB, ISQ or NU1025. ISQ and NU1025 were dissolved in DMSO to a final concentration of 0.2% in treatment medium. 7-12 days later, when colonies could be observed, these colonies were fixed and stained with methylene blue in methanol (4 g/l). Colonies consisting of more than 50 cells were subsequently counted. Predesigned BRCA2 SMARTpool and scrambled siRNAs were purchased (Dharmacon, Lafayette, Colo.). 10000 cells seeded onto 6 well plates and left over night before transfected with 100 nM siRNA using Oligofectamine Reagent (Invitrogen) according to manufacturers instructions. Cells were then cultured in normal growth media for 48 h prior to trypsinisation and replating for toxicity assays. Suppression of BRCA2 was confirmed by Western blotting (as described previously) of protein extracts treated with siRNA with an antibody against BRCA2 (Oncogene, Nottingham, UK).

PARP = PARP activity assay by level of free NAD(P)H (WST-8); assay type: cell-based; settings: FIG. 7F; hydroxyurea 0.5 mM, thymidine 10 mM
Method: A water-soluble tetrazolium salt (5 mM WST-8) was used to monitor the amount of NAD(P)H through its reduction to a yellow coloured formazan dye[43]. 5000 cells were plated in at least triplicate into wells of a 96 well plate and cultured in 100 μl normal growth media for 4 h at 37° C. CK8 buffer (Dojindo Molecular Technology, Gaithersburg, USA), containing WST-8, was then added either with or without treatment with DNA damaging agents at concentrations indicated. Reduction of WST-8 in the presence of NAD(P)H was determined by measuring visible absorbance (OD450) every 30 min. A medium blank was also prepared containing just media and CK8 buffer. Changes in NAD(P)H levels were calculated by comparing the absorbance of wells containing cells treated with DNA damaging agents and those treated with DMSO alone. Alternately relative levels of NAD(P)H in different cells lines were calculated after 4 h incubation in CK8 buffer.

V79 hamster cells = assay: PAR polymer staining (sites of PARP activity); assay type: cell-based; settings: V79 cells treated for 24 hours; FIG. 7C
Method: as §2

Row | SMILES | sensitivity to the toxic effect (survival) [1] | sensitivity to the toxic effect (survival) [2] | sensitivity after introduction of functional XRCC3 gene [3] | sensitivity after introduction of functional XRCC2 gene [4] | activation of PARP and reduction of NAD(P)H levels (PARP) | number of cells containing sites of PARP activity (V79 hamster cells) | other results
1 | NC(=O)c1cccc(N)c1 [3-AB, 3-aminobenzamide] | very sensitive | very sensitive | corrected | corrected | – | – | –
2 | Cc1nc2c(O)cccc2c(=O)[nH]1 [NU1025, 8-hydroxy-2-methylquinazolin-4-[3H]one] | very sensitive | very sensitive | corrected | corrected | – | – | sensitivity after introduction of functional BRCA2 gene [5]: corrected; formation of RAD51 foci (V-C8+B2 cells [6]): RAD51 foci were indeed induced; sensitivity after introduction of functional BRCA2 gene [7]: corrected; formation of RAD51 foci [8]: unable to form RAD51 foci; accumulation of DSBs (V-C8 cells): no DSBs were detectable; survival [9]: profoundly reduced the survival; sensitivity to hydroxyurea (V-C8+B2 cells [10]; FIG. 7D): enhances the sensitivity; sensitivity to thymidine (V-C8+B2 cells [10]; FIG. 7E): enhances the sensitivity; level of apoptosis (VC8 cells): triggered apoptosis only in VC8 cells; accumulation of DSBs (V79 cells): no DSBs were detectable; sensitivity to cytotoxicity relative to wild type cells ([11]; BRCA2 deficient cells versus wild type cells): 100 times; sensitivity to the toxic effect (survival) ([11]; VC8 versus wild type V79Z, FIG. 2): very sensitive; survival [12]: profoundly reduced the survival
3 | COS(C)(=O)=O [MMS, Methylmethane sulphonate] | – | – | – | – | depletes the NAD(P)H levels | – | –
4 | Oc1cccc2c(O)nccc12 [ISQ, 1,5-dihydroxyisoquinoline] | very sensitive | very sensitive | corrected | corrected | – | – | –
5 | Cc1cn([C@H]2C[C@H](O)[C@@H](CO)O2)c(=O)[nH]c1=O [thymidine] | – | – | – | – | much slower | substantial increase | –
6 | NC(=O)NO [hydroxyurea] | – | – | – | – | much slower | substantial increase | –
